{
  "source": "patent US11845735B2",
  "about": "“Method for synthesizing (RS)-Warfarin” (priority 2021, dated 2023)",
  "key": {"[1]": {"tested_on": "extrinsic and common coagulation pathways", "experiment": "prothrombin time (PT) test in rats after oral feeding", "type": "in vivo", "details": "male rats; for International Normalized Ratio / Prothrombin Time: 5 mg/kg fed, blood collected after 24 hours, citrated plasma", "description": "In this example, the anticoagulation effect of an exemplary (RS)-Warfarin was evaluated by an exemplary prothrombin time (PT) test. PT test may refer to an exemplary method carried out for monitoring oral anticoagulant therapy. PT test may measure the period of time it takes for a clot to form in a blood sample. In particular, PT test may measure the activity of exemplary coagulation factors involved in one or more exemplary extrinsic and common coagulation pathways. In one or more exemplary embodiments, prothrombin time may increase in response to inhibition of vitamin K-dependent procoagulant clotting factors (i.e., exemplary factors VII and X and prothrombin).\n(§1) In an exemplary implementation, PT test may be accomplished in an animal model and may be compared to an exemplary commercial sample of Warfarin. In an exemplary implementation, 24 male rats were randomly separated into four groups, six rats in each group. Group I received distilled water (Control Group), Group II received an exemplary commercial Warfarin with an exemplary dose of 5 mg commercial Warfarin per weight of each rat (5 mg/kg), Group III received an exemplary synthesized (RS)-Warfarin with an exemplary dose of 5 mg (RS)-Warfarin per weight of each rat (5 mg/kg (Dose 1)), and Group IV received synthesized (RS)-Warfarin with an exemplary dose of 10 mg (RS)-Warfarin per weight of each rat (10 mg/kg (Dose 2)).\nIn an exemplary implementation, PT test was performed by feeding exemplary commercial Warfarin and Dose 1 of exemplary synthesized (RS)-Warfarin to Group II and Group III of rats, respectively. After 24 hours, exemplary blood samples were collected from two rats that were randomly selected from each of Group II and Group III. About 1.8 ml of each blood sample was added to exemplary tubes containing an exemplary anticoagulant, sodium citrate dihydrate. After centrifugation of each citrated blood sample at 2000 gr for 15 minutes, plasma was separated to be used for PT analysis. In an exemplary implementation, PT test may be performed by adding a mixture of thromboplastin and calcium to citrated plasma. Thromboplastin is a protein-phospholipid extract of tissue that may contain necessary phospholipids and tissue factors for promoting activation of factor X by factor VII. At the beginning of an exemplary anticoagulant therapy (e.g., Warfarin therapy), prothrombin time may reflect an exemplary depression of factor VII, because factor VII may have the shortest half-life among exemplary vitamin K-dependent factors. During an exemplary maintenance therapy, PT test may be sensitive to the decrease in prothrombin and factor X levels. PTs and international normalized ratios (INRs) were measured for Group II and Group III of rats."}, "[2]": {"experiment": "clinical chemistry tests for toxicity (urea, creatinine, SGOT, SGPT, LDH) in rats", "type": "in vivo", "details": "5 mg/kg (Dose 1) and 10 mg/kg (Dose 2) vs commercial Warfarin 5 mg/kg, blood after 24 hours", "description": "as §1\nIn this example, toxicity of exemplary (RS)-Warfarin was assessed using one or more exemplary clinical chemistry tests, such as urea test, creatinine test, SGOT (glutamic oxaloacetic transaminase) test, SGPT (glutamate-pyruvate transaminase) test, and LDH (lactate dehydrogenase) test. In an exemplary implementation, Group II, Group III, and Group IV of rats were fed with exemplary commercial Warfarin, Dose 1 of exemplary synthesized (RS)-Warfarin, and Dose 2 of exemplary synthesized (RS)-Warfarin, respectively. […]"}},
  "data": [
    {"smiles": "CC(=O)CC(c1ccccc1)c1c(O)c2ccccc2oc1=O", "note": "(racemic) [Exemplary Synthesized (RS)-Warfarin, 4-hydroxy-3-(3-oxo-1-phenylbutyl)-2H-1-benzopyran-2-one]", "values": [
      {"measurement": "anticoagulant effect in comparison to commercial Warfarin (PTs and INRs)", "setting": "[1]; 5 mg/kg each, 24 hours", "result": "significantly increased anticoagulant effect"},
      {"measurement": "International Normalized Ratio", "setting": "[1]", "result": 3.4},
      {"measurement": "Prothrombin Time", "setting": "[1]", "result": 24.4, "unit": "s"},
      {"measurement": "urea, creatinine, SGOT, SGPT and LDH test results compared to rats fed with commercial Warfarin (FIG. 8)", "setting": "[2]", "result": "may not significantly differ"}
    ]},
    {"smiles": "CC(=O)CC(c1ccccc1)c1c(O)c2ccccc2oc1=O", "note": "(stereo not drawn) [Exemplary Commercial Warfarin, Warfarin]", "values": [
      {"measurement": "International Normalized Ratio", "setting": "[1]", "result": 2.19},
      {"measurement": "Prothrombin Time", "setting": "[1]", "result": 18.6, "unit": "s"}
    ]}
  ]
}
